Reference: US20020142982A1, “Method for regulating angiogenesis” (priority 1999, published 2002)

Test system: EDG-1
Experiment: Phosphorylation of endogenous EDG-1 in 32P-labeled HUVEC
Format: cell-based, human
Details: S1P 5-60 min
Protocol: (Upper panel) Normal HUVEC cells were labelled with [^32P]-orthophosphate, and stimulated with 100 nM S1P for indicated times. Cell extracts were immunoprecipitated with the affinity-purifed anti-EDG-1 IgY, separated on a SDS-PAGE and autoradiographed. (Middle panel) Some cells were treated with 10 μM LY294002 or 100 nM Wortmannin prior to stimulation with S1P and EDG-1 phosphorylation was examined as above. (Lower panel) Some cells were transduced with 100 MOI of wild-type (wt)-Akt, dominant negative (dn)-Akt or the β-gal virus for 12 h prior to stimulation with S1P. EDG-1 phosphorylation was examined as above.
To label the EDG-1 receptor in HUVEC and HEK293EDG-1 cells, they were pre-incubated in phosphate-free DMEM (GIBCO-BRL) for 2 hr. Subsequently, cells were labeled with [^32P] orthophosphate (80 μCl/ml) for 3 hr. To examine the effect of P1-3 kinase, cultures were treated with wortmannin (100 nM) or LY294002 (10 μM) during tine last hour of labeling. After SPP stimulation, ^32P-labeled EDG-1 receptor was immunoprecipitated with either chicken anti-EDG-1 1gY or anti-M2, resolved on SDS-PAGE, and visualized by autoradiography.
Chicken anti-human EDG-1 antibodies against human EDG-1 polypeptide expressed in E. coli were raised in Aves Labs, Tigard, Oreg. This antibody specifically detected EDG-1 polypeptide in HUVEC cells and transfected HEK293 cells. […]

## CCCCCCCCCCCCC/C=C/[C@@H](O)[C@@H](N)COP(=O)(O)O [SPP, sphingosine-1-phosphate]
  radiolabeling of the endogenous EDG-1 polypeptide: increased
